Data published in patent US7888332B2, “Hydrazide-containing CFTR inhibitor compounds and uses thereof” (The Regents of the University of California, priority 2004, dated 2011).

How the values were obtained:
[1] = Spectrophotometric pH titration (pKa); format: physicochemical
Experimental: FIG. 5A is a graph illustrating the pH-dependent absorbance changes (right panel) of the chemical compounds (10 μM) (corresponding chemical structures, left panel) in NaCl (100 mM) containing MES, HEPES, boric acid, and citric acid (each 10 mM) titrated to different pH using HCl/NaOH. Absorbance changes measured at analytical wavelengths of 346, 348, 346, and 236 nm (top to bottom).

[2] = biological target: T1, CFTR (cAMP-stimulated short-circuit current) in T84 cells (Homo sapiens, UniProt P13569); assay: Short-circuit current in non-permeabilized T84 cells; format: cell-based
T1 construct: endogenous in cells; host or cells: T84 colon epithelial cells
T1 sequence (P13569 whole entry): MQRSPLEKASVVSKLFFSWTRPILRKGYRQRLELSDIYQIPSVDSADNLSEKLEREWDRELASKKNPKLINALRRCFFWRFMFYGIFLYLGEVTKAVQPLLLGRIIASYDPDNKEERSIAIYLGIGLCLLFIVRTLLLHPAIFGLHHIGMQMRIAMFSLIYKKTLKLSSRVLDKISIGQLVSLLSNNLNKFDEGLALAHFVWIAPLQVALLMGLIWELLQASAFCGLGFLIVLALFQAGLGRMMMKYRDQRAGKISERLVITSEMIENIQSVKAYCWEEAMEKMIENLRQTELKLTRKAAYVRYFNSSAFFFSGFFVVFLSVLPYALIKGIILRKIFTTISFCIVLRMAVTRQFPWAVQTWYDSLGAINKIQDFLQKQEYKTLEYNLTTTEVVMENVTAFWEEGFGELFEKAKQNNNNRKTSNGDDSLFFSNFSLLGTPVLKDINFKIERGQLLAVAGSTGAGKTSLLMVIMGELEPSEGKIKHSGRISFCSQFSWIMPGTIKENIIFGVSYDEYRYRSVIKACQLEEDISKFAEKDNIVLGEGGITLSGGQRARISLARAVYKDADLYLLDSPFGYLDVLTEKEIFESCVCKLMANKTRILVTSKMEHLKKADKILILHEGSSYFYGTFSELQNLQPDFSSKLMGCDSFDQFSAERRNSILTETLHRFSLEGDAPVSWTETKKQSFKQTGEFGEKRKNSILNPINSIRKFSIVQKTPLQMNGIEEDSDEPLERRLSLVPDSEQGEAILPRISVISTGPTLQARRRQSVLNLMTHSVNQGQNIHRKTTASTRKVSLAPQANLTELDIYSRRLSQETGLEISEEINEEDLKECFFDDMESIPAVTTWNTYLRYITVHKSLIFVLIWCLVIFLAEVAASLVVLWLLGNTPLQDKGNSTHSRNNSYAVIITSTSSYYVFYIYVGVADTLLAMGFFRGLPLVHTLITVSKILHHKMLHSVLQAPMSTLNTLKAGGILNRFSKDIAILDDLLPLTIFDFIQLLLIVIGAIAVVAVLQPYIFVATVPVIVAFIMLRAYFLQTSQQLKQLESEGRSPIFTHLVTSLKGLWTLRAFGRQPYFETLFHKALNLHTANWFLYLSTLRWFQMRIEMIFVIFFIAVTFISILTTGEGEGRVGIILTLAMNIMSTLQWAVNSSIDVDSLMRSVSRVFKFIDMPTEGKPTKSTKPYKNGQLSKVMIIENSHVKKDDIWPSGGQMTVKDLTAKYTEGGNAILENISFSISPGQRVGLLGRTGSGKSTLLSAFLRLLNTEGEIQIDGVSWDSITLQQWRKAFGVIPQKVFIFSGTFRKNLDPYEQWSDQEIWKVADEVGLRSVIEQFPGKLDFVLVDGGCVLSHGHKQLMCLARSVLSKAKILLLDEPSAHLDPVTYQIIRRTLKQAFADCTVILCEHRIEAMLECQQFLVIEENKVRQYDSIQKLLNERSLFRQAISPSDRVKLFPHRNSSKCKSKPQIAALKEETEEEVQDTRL
Experimental: (§1) The efficacy of GlyH-101 in inhibiting cAMP/cholera toxin-induced intestinal fluid secretion was also evaluated. Short-circuit current experiments were done in different cell types and in intact mouse ileum under non-permeabilized conditions and in the absence of a Cl^− gradient. In each case CFTR was activated by CPT-cAMP after ENaC inhibition by amiloride. […] Inhibition was ˜100% at higher GlyH-101 concentrations. Cholera toxin-induced intestinal fluid secretion was measured in an in vivo closed-loop model in which loops for each mouse were injected with saline (control), cholera toxin (1 μg), or cholera toxin (1 μg)+GlyH-101 (0.25 μg). GlyH-101 was added to the lumen (rather than systemically) based on initial studies showing poor intestinal absorption and little effect of systemically administered compound. Compared to the saline control, the cholera toxin-induced increase in fluid secretion over 4 hours, quantified from loop weight-to-length ratio, was 80% reduced by GlyH-101.

[3] = biological target: T2, CFTR (cAMP-stimulated short-circuit current) in mouse ileum (Mus musculus, UniProt P26361); assay: Short-circuit current in intact mouse ileum
T2 construct: from tissue; host or cells: isolated mouse ileal segments in a micro-Ussing chamber
T2 sequence (P26361 whole entry): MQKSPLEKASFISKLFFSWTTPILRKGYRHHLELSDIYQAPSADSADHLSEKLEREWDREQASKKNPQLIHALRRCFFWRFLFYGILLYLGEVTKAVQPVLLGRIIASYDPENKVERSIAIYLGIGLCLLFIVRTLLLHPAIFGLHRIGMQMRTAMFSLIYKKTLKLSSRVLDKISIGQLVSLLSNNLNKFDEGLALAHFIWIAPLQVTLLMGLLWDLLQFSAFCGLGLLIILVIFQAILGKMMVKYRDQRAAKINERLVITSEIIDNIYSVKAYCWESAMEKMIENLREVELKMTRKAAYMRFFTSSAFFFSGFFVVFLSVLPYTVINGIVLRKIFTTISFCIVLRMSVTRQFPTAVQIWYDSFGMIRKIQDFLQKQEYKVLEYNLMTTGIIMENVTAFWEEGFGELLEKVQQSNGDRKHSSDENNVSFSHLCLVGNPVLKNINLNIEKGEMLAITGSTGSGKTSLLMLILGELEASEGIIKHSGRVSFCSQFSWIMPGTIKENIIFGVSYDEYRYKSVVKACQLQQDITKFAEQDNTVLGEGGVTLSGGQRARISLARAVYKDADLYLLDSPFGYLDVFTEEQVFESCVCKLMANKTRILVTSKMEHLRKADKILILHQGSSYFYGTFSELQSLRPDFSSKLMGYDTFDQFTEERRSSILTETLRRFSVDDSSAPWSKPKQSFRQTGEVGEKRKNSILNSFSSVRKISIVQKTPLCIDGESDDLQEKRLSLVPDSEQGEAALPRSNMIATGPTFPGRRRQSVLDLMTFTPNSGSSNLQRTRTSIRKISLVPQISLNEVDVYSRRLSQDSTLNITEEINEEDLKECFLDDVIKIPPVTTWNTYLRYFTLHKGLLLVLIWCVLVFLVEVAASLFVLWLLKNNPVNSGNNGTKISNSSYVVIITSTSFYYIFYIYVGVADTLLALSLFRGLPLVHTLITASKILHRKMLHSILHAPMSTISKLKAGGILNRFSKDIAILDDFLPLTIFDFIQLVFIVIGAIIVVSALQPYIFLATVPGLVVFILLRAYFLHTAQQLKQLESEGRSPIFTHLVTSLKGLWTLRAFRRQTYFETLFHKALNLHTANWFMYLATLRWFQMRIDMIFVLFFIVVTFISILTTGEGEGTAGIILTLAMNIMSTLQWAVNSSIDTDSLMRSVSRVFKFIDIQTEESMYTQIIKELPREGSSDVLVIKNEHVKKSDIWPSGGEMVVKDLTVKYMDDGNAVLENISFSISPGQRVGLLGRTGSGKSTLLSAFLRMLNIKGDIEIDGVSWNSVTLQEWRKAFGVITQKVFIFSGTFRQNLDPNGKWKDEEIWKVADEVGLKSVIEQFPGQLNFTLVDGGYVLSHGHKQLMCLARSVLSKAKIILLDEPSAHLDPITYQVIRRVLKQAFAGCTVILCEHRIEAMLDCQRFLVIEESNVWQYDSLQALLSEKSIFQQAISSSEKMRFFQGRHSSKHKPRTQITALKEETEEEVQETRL
Experimental: as §1

[4] = system: cholera toxin-induced intestinal fluid secretion; set-up: species or system mice; conditions: mouse, in vivo
[5] = Initial studies of GlyH-101 intestinal absorption and systemic administration; format: in vivo
Experimental: as §1

[6] = biological target: upper airway CFTR Cl− conductance (Mus musculus, UniProt P26361); assay: Nasal potential difference measurements in mice
Chain of upper airway CFTR Cl− conductance (P26361 whole entry): as above

CFTR [7] = biological target: T3, CFTR (Homo sapiens, UniProt P13569); assay: Short-circuit current (apical Cl− current) analysis on permeabilized CFTR-expressing FRT cells
T3 sequence (P13569 whole entry): as the sequence (P13569 whole entry) above

CFTR [8] = biological target: T3, CFTR; assay: Whole-cell patch-clamp on FRT cells expressing CFTR; format: cell-based; set-up: expressed in transfected cells; host or cells: Fisher Rat Thyroid (FRT) cells, stably transfected; conditions: for Ki: 5 μM forskolin, read-out: apparent Ki
Experimental: Patch-clamp experiments were carried out at room temperature on FRT cells stably expressing wildtype CFTR. Cell-attached and whole-cell configurations were used (Hamill et al., Pflugers Arch. 391:85-100, 1981). The cell membrane was clamped at specified voltages using an EPC-7 patch-clamp amplifier (List Medical). Data were filtered at 500 Hz and digitized at 2000 Hz. For whole-cell experiments the pipette solution contained (in mM): 120 CsCl, 10 TEA-Cl, 0.5 EGTA, 1 MgCl2, 40 mannitol, 10 Cs-HEPES and 3 mM MgATP (pH 7.3). For cell attached experiments EGTA was replaced with 1 mM CaCl2. The bath solution for whole-cell experiments contained (in mM): 150 NaCl, 1 CaCl2, 1 MgCl2, 10 glucose, 10 mannitol, 10 Na-TES (pH 7.4). In cell-attached experiments the bath solution contained (in mM): 130 KCl, 2 NaCl, 2 CaCl2, 2 MgCl2, 10 glucose, 20 mannitol, and 10 K-Hepes (pH 7.3). Inhibitors were applied by extracellular perfusion. CFTR channel activity in cell-attached patches was analyzed as described previously (Taddei et al., FEBS Lett. 558:52-56, 2004).
The mechanism of CFTR block by GlyH-101 was studied using the whole-cell configuration of the patch-clamp technique. After maximal activation of CFTR in stably transfected FRT cells by 5 μM forskolin, current-voltage relationships were measured at GlyH-101 concentrations from 0 to 50 μM. […] Extracellular perfusion with 10 μM GlyH-101 produced an immediate reduction in current that was strongly dependent on membrane potential (FIG. 4A, right panel). At more positive membrane potentials outward positive currents (Cl^− movement into the cell) were reduced compared to inward currents. […] Data for the thiazolidinone 3-[(3-trifluoromethyl)phenyl]-5-[(4-carboxyphenyl)methylene]-2-thioxo-4-thiazolidinone (referred to herein as CFTRinh-172) (5 μM) is shown for comparison. […] FIG. 4C summarizes percentage CFTR current block as a function of GlyH-101 concentration at different membrane voltages.

[9] = CPT-cAMP after amiloride, read-out: Ki for inhibition of cAMP-stimulated short-circuit current

O=C(CNc1ccc2ccccc2c1)NN=Cc1cc(Br)c(O)c(Br)c1O [GlyH-101, N-2-napthalenyl-[(3,5-dibromo-2,4-dihydroxyphenyl)methylene]glycine hydrazide]
pKa, first (para) phenolic hydroxyl [1]: ~5.5 | pKa, second ortho hydroxyl [1]: ~8.5 | pKa, secondary amine [1]: ~4.7 | ionic form ([1]; pH between 6 and 8): singly charged anion | Inhibition at higher concentrations [2]: ~100% | Ki [2, 9]: ~5 µM | Inhibition at higher concentrations [3]: ~100% | Ki [3, 9]: ~5 µM | reduction of cholera toxin-induced increase in fluid secretion (loop weight-to-length ratio) [4]: 80% | effect of systemically administered compound [5]: little effect | intestinal absorption [5]: poor | water solubility compared to CFTRinh-172 (Water solubility): 50 fold | water solubility (Water solubility; in water, 22° C., pH 6-8): 0.8 to 1.3 mM | PD change (ΔPD), paired analysis ([6]; after ˜4 mV hyperpolarization by forskolin): depolarization of similar magnitude | inhibition of forskolin-induced hyperpolarization ([6]; compound in all solutions (10 μM)): substantial inhibition | effect on forskolin-induced hyperpolarization of nasal PD ([6]; topical in perfusate, 10 μM): rapidly reversed | % inhibition at 50 μM (CFTR [7]; Table 1, Group I, 50 μM): 95% | Ki (CFTR [7]; Table 1, Group I, concentration giving 50% inhibition of CFTR Cl− conductance): 5 µM | pH dependence of Ki for inhibition of CFTR Cl− current (CFTR [7]; pH range 6-8): independent of pH | Ki (CFTR [7]; read-out: Ki of screening hits, dose-response measurements, confirmed by short-circuit current analysis): ~5 µM | increase of apparent Ki as applied potential varied from +60 to −60 mV (CFTR [8]): approximately four-fold | Hill coefficient nH (CFTR [8]; +20 mV): 0.7 | Ki (CFTR [8]; +20 mV): 3.8 µM | Hill coefficient nH (CFTR [8]; +60 mV): 0.5 | Ki (CFTR [8]; +60 mV): 1.4 µM | current-voltage relationship (CFTR [8]; GlyH-101 at submaximal concentrations, CFTRinh-172 5 μM): inward rectification | Hill coefficient nH (CFTR [8]; −20 mV): 1.3 | Ki (CFTR [8]; −20 mV): 5 µM | Hill coefficient nH (CFTR [8]; −60 mV): 1.8 | Ki (CFTR [8]; −60 mV): 5.6 µM | inhibition of CFTR Cl− conductance at high concentrations (CFTR [8]; ≧30 μM, whole-cell patch-clamp and short-circuit current experiments): fully inhibited
